Experimental data published in US20230075856A1, “CYCLIC SULFAMIDE COMPOUNDS FOR TREATMENT OF HBV” (Assembly Biosciences, Inc., priority 2018, published 2023).
pEC50: −log10 of the molar value.

Each compound was assayed on HBV viral load production from HepAD38 cells (assay: Viral production from HepAD38 cells: viral load in supernatant by qPCR of the HBV core sequence). Conditions: 5 days incubation, qPCR of supernatant HBV DNA vs DMSO control, read-out: viral load lowering EC50 (Activity).
Assay type: cell-based
Method in brief: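 Viral load was measured by qPCR of the HBV core region in supernatant, quantified against DNA standards and compared with DMSO wells. Cells (50,000/well, tetracycline withdrawn, 2% FBS) received compound from 10 μM final for 5 days; EC50 from four-parameter nonlinear regression.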

Compound	pEC50
Cc1ccccc1-c1nc(C)c(CNC(=O)C2CC(C(=O)Nc3ccc(F)c(Cl)c3)N(C)S(=O)(=O)N2)s1 (single isomer, unassigned) [1017-ISOMER-B, N3-(3-chloro-4-fluoro-phenyl)-2-methyl-N5-[[4-methyl-2-(o-tolyl)thiazol-5-yl]methyl]-1,1-dioxo-1,2,6-thiadiazinane-3,5-dicarboxamide]	5.00 to 7.00
CCN1C(C(=O)Nc2ccc(F)c(Cl)c2)CC(C(=O)NCc2cnc(C)s2)NS1(=O)=O (single isomer, unassigned) [Compound 888-ISOMER-B, N3-(3-chloro-4-fluoro-phenyl)-2-ethyl-N5-[(2-methylthiazol-5-yl)methyl]-1,1-dioxo-1,2,6-thiadiazinane-3,5-dicarboxamide]	> 7.30
COc1ccc2nc(CNC(=O)C3CC(C(=O)Nc4ccc(F)c(Cl)c4)N(C)S(=O)(=O)N3)sc2c1 (single isomer, unassigned) [1011-ISOMER-A, N3-(3-Chloro-4-fluoro-phenyl)-N5-[(6-methoxy-1,3-benzothiazol-2-yl)methyl]-2-methyl-1,1-dioxo-1,2,6-thiadiazinane-3,5-dicarboxamide]	5.00 to 7.00
Cc1nc(-c2ccccc2)sc1CNC(=O)C1CC(C(=O)Nc2ccc(F)c(Cl)c2)N(C)S(=O)(=O)N1 (single isomer, unassigned) [Compound 914-ISOMER-B, N3-(3-chloro-4-fluoro-phenyl)-2-methyl-N5-[(4-methyl-2-phenyl-thiazol-5-yl)methyl]-1,1-dioxo-1,2,6-thiadiazinane-3,5-dicarboxamide]	7.00 to 7.30
COc1ccc(-c2cnc(CNC(=O)C3CC(C(=O)Nc4ccc(F)c(Cl)c4)N(C)S(=O)(=O)N3)s2)cc1 (single isomer, unassigned) [Compound 932-ISOMER-B, N3-(3-chloro-4-fluoro-phenyl)-N5-[[5-(4-methoxyphenyl)thiazol-2-yl]methyl]-2-methyl-1,1-dioxo-1,2,6-thiadiazinane-3,5-dicarboxamide]	> 7.30
N3-(3-chloro-4-fluoro-phenyl)-2-methyl-1,1-dioxo-N5-[(5-phenylisoxazol-3-yl)methyl]- [1149-ISOMER-B]	5.00 to 7.00
Cc1nc(-c2ccc(F)cc2)sc1CNC(=O)C1CC(C(=O)Nc2ccc(F)c(Cl)c2)N(C)S(=O)(=O)N1 (single isomer, unassigned) [1056-ISOMER-B, N3-(3-chloro-4-fluoro-phenyl)-N5-[[2-(4-fluorophenyl)-4-methyl-thiazol-5-yl]methyl]-2-methyl-1,1-dioxo-1,2,6-thiadiazinane-3,5-dicarboxamide]	> 7.30
COC(=O)N1CCC(NC(=O)C2CC(C(=O)Nc3ccc(F)c(Cl)c3)N(CC(F)(F)F)S(=O)(=O)N2)CC1 (single isomer, unassigned; isomer-b) [Compound 893-ISOMER-B, methyl 4-[[5-[(3-chloro-4-fluroo-phenyl)carbamoyl]-1,1-dioxo-6-(2,2,2-trifluoroethyl)-1,2,6-thiadiazinane-3-carbonyl]amino]piperidine-1-carboxylate]	5.00 to 7.00
CN1C(C(=O)Nc2ccc(F)c(Cl)c2)CC(C(=O)NCc2ncc(-c3ccc(F)cc3)s2)NS1(=O)=O (single isomer, unassigned) [1153-ISOMER-B, N3-(3-chloro-4-fluoro-phenyl)-N5-[[5-(4-fluorophenyl)thiazol-2-yl]methyl]-2-methyl-1,1-dioxo-1,2,6-thiadiazinane-3,5-dicarboxamide]	5.00 to 7.00
CN1C(C(=O)Nc2ccc(F)c(Cl)c2)CC(C(=O)NCc2cnc(N)s2)NS1(=O)=O (single isomer, unassigned) [1132-ISOMER-B, N5-[(2-aminothiazol-5-yl)methyl]-N3-(3-chloro-4-fluoro-phenyl)-2-methyl-1,1-dioxo-1,2,6-thiadiazinane-3,5-dicarboxamide]	5.00 to 7.00

Same assay, conditions: Hepatitis B virus, HePAD38, 120 h, 5 days incubation, qPCR of supernatant HBV DNA vs DMSO control, read-out: viral load lowering EC50 (Activity)

Compound	pEC50
CN1C(C(=O)Nc2ccc(F)c(Cl)c2)CC(C(=O)NCc2cnc(N)s2)NS1(=O)=O (single isomer, unassigned) [1132-ISOMER-A, N5-[(2-aminothiazol-5-yl)methyl]-N3-(3-chloro-4-fluoro-phenyl)-2-methyl-1,1-dioxo-1,2,6-thiadiazinane-3,5-dicarboxamide]	7.00 to 7.30
CN1C(C(=O)Nc2ccc(F)c(Cl)c2)CC(C(=O)NCc2ccccc2-n2cccn2)NS1(=O)=O (stereo not shown) [Compound 909]	> 7.30
Cc1cn(-c2ccccc2F)nc1CNC(=O)C1CC(C(=O)Nc2ccc(F)c(Cl)c2)N(C)S(=O)(=O)N1 (single isomer, unassigned) [1142-ISOMER-A, N3-(3-chloro-4-fluoro-phenyl)-N5-[[1-(2-fluorophenyl)-4-methyl-pyrazol-3-yl]methyl]-2-methyl-1,1-dioxo-1,2,6-thiadiazinane-3,5-dicarboxamide]	> 7.30
Cc1nc(-c2ccccc2F)sc1CNC(=O)C1CC(C(=O)Nc2ccc(F)c(Cl)c2)N(C)S(=O)(=O)N1 (stereo not shown) [Compound 1016]	> 7.30
Cc1nc(-c2ccccc2Cl)sc1[C@H](NC(=O)C1CC(C(=O)Nc2ccc(F)c(Cl)c2)N(C)S(=O)(=O)N1)c1ccccc1 (single isomer, unassigned) [1100-ISOMER-C]	5.00 to 7.00
CN1C(C(=O)Nc2ccc(F)c(Cl)c2)CC(C(=O)NC2CCN(c3cc(CN4CCCCC4)ccn3)CC2)NS1(=O)=O (stereo not shown) [Compound 975]	> 7.30
CN1C(C(=O)Nc2ccc(F)c(Cl)c2)CC(C(=O)NCc2cc(-c3ccc(F)cc3)n(C)n2)NS1(=O)=O (stereo not shown) [Compound 1151]	> 7.30
C[C@H](NC(=O)C1CC(C(=O)Nc2ccc(F)c(Cl)c2)N(C)S(=O)(=O)N1)c1ccccc1 (stereo partly shown) [Compound 755]	5.00 to 7.00
COCCN1C(C(=O)Nc2ccc(F)c(Cl)c2)CC(C(=O)NC2CCN(C(=O)OC)CC2)NS1(=O)=O (stereo not shown) [Compound 896]	5.00 to 7.00
CN1C(C(=O)Nc2ccc(F)c(Cl)c2)CC(C(=O)NCc2ccccc2Cl)NS1(=O)=O (stereo not shown) [Compound 820]	> 7.30
CN1C(C(=O)Nc2ccc(F)c(Cl)c2)CC(C(=O)NC2CCN(C(=O)C3CC3)CC2)NS1(=O)=O (single isomer, unassigned) [Compound 854-ISOMER-A, N3-(3-chloro-4-fluoro-phenyl)-N5-[1-(cyclopropanecarbonyl)-4-piperidyl]-2-methyl-1,1-dioxo-1,2,6-thiadiazinane-3,5-dicarboxamide]	> 7.30
CN1C(C(=O)Nc2ccc(F)c(C#N)c2)CC(C(=O)NCc2cnc(C(F)(F)F)s2)NS1(=O)=O (stereo not shown) [Compound 772]	> 7.30
CN1C(C(=O)Nc2ccc(F)c(Cl)c2)CC(C(=O)NC2CCN(C(=O)OC(C)(C)C)CC2)NS1(=O)=O (single isomer, unassigned) [Compound 767-ISOMER-A, tert-butyl 4-[[5-[(3-chloro-4-fluoro-phenyl)carbamoyl]-6-methyl-1,1-dioxo-1,2,6-thiadiazinane-3-carbonyl]amino]piperidine-1-carboxylate]	> 7.30
CN1C(C(=O)Nc2ccc(F)c(Cl)c2)CC(C(=O)NC(c2ccccc2)c2cnc(-c3ccccc3)s2)NS1(=O)=O (single isomer, unassigned) [1067-ISOMER-A, N3-(3-chloro-4-fluoro-phenyl)-2-methyl-1,1-dioxo-N5-[phenyl-(2-phenylthiazol-5-yl)methyl]-1,2,6-thiadiazinane-3,5-dicarboxamide]	> 7.30
CN1C(C(=O)Nc2ccc(F)c(Cl)c2)CC(C(=O)NCc2cnc(-c3cscn3)s2)NS1(=O)=O (single isomer, unassigned) [Compound 929-ISOMER-B, N3-(3-chloro-4-fluoro-phenyl)-2-methyl-1,1-dioxo-N5-[(2-thiazol-4-ylthiazol-5-yl)methyl]-1,2,6-thiadiazinane-3,5-dicarboxamide]	> 7.30
CN1C(C(=O)Nc2ccc(F)c(C#N)c2)CC(C(=O)NCc2nc3ccccc3s2)NS1(=O)=O (stereo not shown) [Compound 866]	5.00 to 7.00
CN1C(C(=O)Nc2ccc(F)c(Cl)c2)CC(C(=O)NCc2cn(-c3ccccc3)nn2)NS1(=O)=O (stereo not shown) [Compound 1147]	7.00 to 7.30
CN1C(C(=O)Nc2ccc(F)c(Cl)c2)CC(C(=O)NCc2ccccc2)NS1(=O)=O (single isomer, unassigned) [Compound 718-ISOMER-A, N5-benzyl-N3-(3-chloro-4-fluoro-phenyl)-2-methyl-1,1-dioxo-1,2,6-thiadiazinane-3,5-dicarboxamide]	> 7.30
CN1C(C(=O)Nc2ccc(F)c(Cl)c2)CC(C(=O)NCc2cnc(-c3cccc(Cl)c3)s2)NS1(=O)=O (single isomer, unassigned) [Compound 913-ISOMER-A, N3-(3-chloro-4-fluoro-phenyl)-N5-[[2-(3-chlorophenyl)thiazol-5-yl]methyl]-2-methyl-1,1-dioxo-1,2,6-thiadiazinane-3,5-dicarboxamide]	5.00 to 7.00
CN1C(C(=O)Nc2ccc(F)c(Cl)c2)CC(C(=O)NC(c2ccccc2)c2cnc(-c3ccccc3F)s2)NS1(=O)=O (stereo not shown) [Compound 1084]	> 7.30
CN1C(C(=O)Nc2ccc(F)c(Cl)c2)CC(C(=O)NC2CCN(c3ccnc(F)c3)CC2)NS1(=O)=O (stereo not shown) [Compound 1040]	> 7.30
Cc1nc(-c2ccc(F)cc2)sc1CNC(=O)C1CC(C(=O)Nc2ccc(F)c(Cl)c2)N(C)S(=O)(=O)N1 (single isomer, unassigned) [1056-ISOMER-A, N3-(3-chloro-4-fluoro-phenyl)-N5-[[2-(4-fluorophenyl)-4-methyl-thiazol-5-yl]methyl]-2-methyl-1,1-dioxo-1,2,6-thiadiazinane-3,5-dicarboxamide]	5.00 to 7.00
C[C@H](NC(=O)C1CC(C(=O)Nc2ccc(F)c(Cl)c2)N(C)S(=O)(=O)N1)c1ccc(F)cc1 (stereo partly shown) [Compound 493-S]	> 7.30
CN1C(C(=O)Nc2ccc(F)c(Cl)c2)CC(C(=O)NC2CCN(c3cc(Cl)ccn3)CC2)NS1(=O)=O (stereo not shown) [Compound 974]	> 7.30
